Data published in patent publication US6830916B2, “Sphingosine kinase, cloning, expression and methods of use” (priority 2000, dated 2004).
Each block holds one molecule with its values, some of them ahead of it.

Legend:
hSPHK1 [1] = biological target: T1, hSPHK1 (Homo sapiens, UniProt Q9NYA1); test: SPHK-dependent phosphorylation of sphingosine analogs and other lipids (substrate specificity of hSPHK1); assay type: biochemical; details: lipid 50 μM, lysates of HEK293 cells transfected with hSPHK1 as enzyme source
T1 construct: to obtain the full-length cDNA of hSPHK1; expressed in transfected cells; host or cells: HEK293
Method: (§1) Cytosolic sphingosine kinase activity was determined with 50 μM sphingosine dissolved in Triton X-100 (final concentration 0.25%) and […] (10 μCi, 1 mM) containing MgCl2 (10 mM). In some studies, sphingosine was added as a complex with bovine serum albumin (BSA). Specific activity was expressed as pmol SPP formed per minute per mg protein.
(§2) HEK293 cells were transfected with hSPHK1 and SPHK-dependent phosphorylation of various sphingosine analogs or other lipids (50 μM) was measured using cell lysates as enzyme source. DAG, diacylglycerol; PI, phosphatidylinositol; C2-CER, N-acetyl—sphingosine. […] SPHK activity in HEK293 cell lysates 24 h after transfection with hSPHK1 was measured with 10 μM […] in the absence or presence of 20 μM and 40 μM DMS or DHS. Data are means±SD and are expressed as percent inhibition.

hSPHK1 [2] = biological target: T1, hSPHK1; test: Inhibition of SPHK activity in lysates of HEK293 cells transfected with hSPHK1; assay type: biochemical; details: for inhibition of hSPHK1: 20 μM and 40 μM inhibitor, 10 μM SPP (so in the source), HEK293 lysates 24 h after transfection
Method: as §1, §2

c-myc-SPHK = test: Cytosolic c-myc-SPHK activity in transfected NIH 3T3 fibroblasts; assay type: cell-based
Method: as §1

mouse melanoma B10 cells = details: low nanomolar concentrations of SPP; also SPP immobilized on glass beads; cited from earlier work
[3] = substrate: CCCCCCCCCCCCC/C=C/[C@@H](O)[C@@H](N)CO; test: SPHK-dependent phosphorylation of sphingosine analogs and other lipids (substrate specificity of hSPHK1); assay type: biochemical, human; details: other: D-erythro-sphingosine as substrate
Method: as §1, §2

Molecule: CCCCCCCCCCCCCCC[C@H](O)[C@@H](N)CO [DHS, D,L-threo-dihydrosphingosine]
substrate of hSPHK1 (SPHK-dependent phosphorylation) (hSPHK1 [1]): not substrates
inhibition of hSPHK1 (hSPHK1 [2]): inhibited hSPHK1
inhibition of hSPHK1 (hSPHK1 [2]; listed as D,L-threo-dihydro-sphingosine): inhibitors of hSPHK1
relative inhibitory potency on hSPHK1 (hSPHK1 [2]; DHS compared with DMS): slightly more potent thank DMS

Molecule: N,N-dimethylsphingosine [DMS]
inhibition of hSPHK1 (hSPHK1 [2]): inhibitors of hSPHK1
inhibition of hSPHK1 (hSPHK1 [2]; listed as CMS): inhibited hSPHK1

Molecule: PDGF
effect on cytosolic c-myc-SPHK activity (c-myc-SPHK): stimulated

Molecule: diacylglycerol
substrate of hSPHK1 (SPHK-dependent phosphorylation) (hSPHK1 [1]): not substrates

Molecule: CCCCCCCCCCCCC/C=C/[C@@H](O)[C@@H](N)COP(=O)(O)O [SPP, Sphingosine-1-phosphate]
effect on cell motility (mouse melanoma B10 cells): inhibited the motility

B1: hSPHK1 (Homo sapiens) (protein)
chain: MDPAGGPRGVLPRPCRVLVLLNPRGGKGKALQLFRSHVQPLLAEAEISFTLMLTERRNHARELVRSEELGRWDALVVMSGDGLMHEVVNGLMERPDWETAIQKPLCSLPAGSGNALAASLNHYAGYEQVTNEDLLTNCTLLLCRRLLSPMNLLSLHTASGLRLFSVLSLAWGFIADVDLESEKYRRLGEMRFTLGTFLRLAALRTYRGRLAYLPVGRVGSKTPASPVVVQQGPVDAHLVPLEEPVPSHWTVVPDEDFVLVLALLHSHLGSEMFAAPMGRCAAGVMHLFYVRAGVSRAMLLRLFLAMEKGRHMEYECPYLVYVPVVAFRLEPKDGKGVFAVDGELMVSEAVQGQVHPNYFWMVSGCVEPPPSWKPQQMPPPEEPL
notes: to obtain the full-length cDNA of hSPHK1; expressed in transfected cells; host or cells: HEK293
Km [3]: 5 µM

Now from value to molecule, other results behind:

substrate of hSPHK1 (SPHK-dependent phosphorylation) (hSPHK1 [1]): not substrates
Molecule: phosphatidylinositol

substrate of hSPHK1 (SPHK-dependent phosphorylation) (hSPHK1 [1]): not substrates
Molecule: CCCCCCCCCCCCC/C=C/[C@@H](O)[C@H](CO)NC(C)=O [C2-ceramide, N-acetyl—sphingosine]

substrate of hSPHK1 (SPHK-dependent phosphorylation) (hSPHK1 [1]): best substrates
Molecule: CCCCCCCCCCCCCCC[C@H](O)[C@H](N)CO [erythrodihydrosphingosine]

substrate of hSPHK1 (SPHK-dependent phosphorylation) (hSPHK1 [1]; listed as D-(+)-erythro-trans-isomer of sphingosine): best substrates
Molecule: CCCCCCCCCCCCC/C=C/[C@@H](O)[C@@H](N)CO [D-erythro-sphingosine]
substrate of hSPHK1 (SPHK-dependent phosphorylation) (hSPHK1 [1]): more efficiently phosphorylated than sphingamine
